# Laboratory results published in US20060069010A1, “Detoxification depot for Alzheimer's disease” (Senicure LLC, priority 2003, published 2006).
# Square brackets hold non-standard residues; d marks the D form. Ends that are not written are not given here.
# Tests used:
# Aβ = conditions: after 1 day of treatment; on the order of 500 ng/g tissue; cited from earlier work
# nt-bAP = conditions: according to the thioflavin assay (Zhang et al.); cited from earlier work
# [1] = molecular target: T1, biotinylated Aβ^1-40 peptide (Homo sapiens, UniProt P05067); test: direct ELISA, plate-immobilised capture peptide probed with biotinylated Aβ peptide; type: binding; conditions: 1 μg/well capture peptide, 1 μg/ml biotinylated Aβ, 2 hours; compared to scrambled or irrelevant control peptide (FIG. 1a)
# T1 construct: biotinylated Aβ^1-40 peptide (1.7 μg/ml) at 37° C; purchased
# Method: (§1) FIG. 1a graphically illustrates binding of biotinylated Aβ^1-42 and biotinylated Aβ^1-40 peptide by RI peptide. 96-well plate was coated with the capture peptide (1 μg/well of retro-inverso [RI], scrambled [SCR] or an irrelevant control peptide), blocked with gelatin and probed with 1 μg/ml of biotinylated Aβ peptide for 2 hours and streptavidin peroxidase for 1 hour. Experiments were repeated and were calculated as Mean±SE (N=2) and expressed as pmols Aβ^1-42/ml of binding solution. Graded concentrations of biotinylated Aβ^1-42 peptide was used as a calibration standard.
# (§2) Testing the binding and stability of biotinylated Aβ peptides in binding solution. The ability of the biotinylated, nt-bAP, which is represented by Aβ peptides (1-42 and 1-40) to bind the binding element, the retro inverso peptide (RI) was investigated on a direct ELISA as described at the end of this section. RI, scrambled or an irrelevant peptide, immobilized on an ELISA plate was allowed to bind biotinylated Aβ peptides, 1-42 or 1-40.
# [2] = molecular target: T2, biotinylated Aβ^1-42 peptide (Homo sapiens, UniProt P05067); test: as above; type: binding; conditions: 1 μg/well capture peptide, 1 μg/ml biotinylated Aβ, 2 hours; compared to scrambled or irrelevant control peptide (FIG. 1a)
# T2 construct: biotinylated Aβ^1-42 peptide (1.7 μg/ml) at 37° C; purchased
# Method: as §1, §2
# Chain of Aβ (P05067 672-711 limits assumed): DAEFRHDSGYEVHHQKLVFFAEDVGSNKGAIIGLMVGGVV
# T2 sequence (P05067 672-713): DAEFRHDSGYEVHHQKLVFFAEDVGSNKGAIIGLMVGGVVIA
# Chain of nt-bAP (P05067 672-711 limits assumed): as the sequence (P05067 672-711 limits assumed) above
# T1 sequence (P05067 672-711): as the sequence (P05067 672-711 limits assumed) above
substance,measurement,setting,value
GM1,levels of Aβ in brain,Aβ,reduced in half
gelsolin,levels of Aβ in brain,Aβ,reduced in half
phe-phe-val-leu-lys [ffvlk],toxicity of aggregates of binding element with nt-bAP,nt-bAP,less toxic than nt-bAP itself
phe-phe-val-leu-lys-Cys ([dF][dF][dV][dL][dK][dC]-NH2; not fully specified; printed as phe-phe-val-leu-lys-Cys) [RI peptide],binding of biotinylated Aβ^1-40 by capture peptide,[1],significant and specific binding
same,binding of biotinylated Aβ^1-42 by capture peptide,[2],significant and specific binding
